What all share (assay type): cell-based
In assay [1] the test system is K-562 line. As to the kind of experiment: MTS cell proliferation and viability test, K-562 line. To be noted: Homo sapiens, K562, K-562 leukaemia line, 72 hours of incubation, read-out: IC50 (50% loss of cell proliferation and cell viability). The protocol: The compounds of formula (I) according to the present invention were tested in vitro on a panel of tumour lines of human origin, originating: • from breast cancer: MDA-MB231 (American Type culture collection, Rockville, Md., USA, ATCC-HTB26), MDA-A1 or MDA-ADR (called multi-drug resistant MDR line, and described by E. Collomb et al., in Cytometry, 12(1):15-25, 1991), and MCF7 (ATCC-HTB22), • from prostate cancer: DU145 (ATCC-HTB81) and PC3 (ATCC-CRL1435), • from colon cancer: HCT116 (ATCC-CCL247) and HCT15 (ATCC-CCL225), • from lung cancer: H460 (described by Carmichael in Cancer Research 47 (4):936-942, 1987 and provided by the National Cancer Institute, Frederick Cancer Research and Development Center, Frederick, Md., USA), • from glioblastoma: SF268 (described by Westphal in Biochemical & Biophysical Research Communications 132 (1): 284-289, 1985 and provided by the National Cancer Institute, Frederick Cancer Research and Development Center, Frederick, Md., USA), • from leukaemia: CMLT1 (described by Kuriyama et al. in Blood, 74: 1989, 1381-1387, by Soda et al. in British Journal of Haematology, 59: 1985, 671-679 and by Drexler, in Leukemia Research, 18: 1994, 919-927 and provided by the company DSMZ (Deutsche Sammlung von Mikroorganismen und Zellkulturen GmbH) Mascheroder Weg 1b, 38124 Braunschweig, Germany), K-562 (described by Lozzio et al., J Natl Cancer Inst 50: 535 (1973), by Lozzio et al., Blood 45: 321 (1975), and provided by DSMZ No. ACC 10), KG-1a (described by Koeffler et al., Blood 56: 265 (1980), and provided by DSMZ No. ACC 421), and Kasumi-1 (described by Asou et al., Blood 77: 2031 (1991), and provided by DSMZ No. ACC 220).
The cell proliferation and viability were determined in a test using 3-(4,5-dimethylthiazol-2-yl)-5-(3-carboxymethoxyphenyl)-2-(4-sulphophenyl)-2H-tetrazolium (MTS) according to Fujishita T. et al., Oncology, 2003, 64 (4), 399-406. In this test, the mitochondrial ability of the live cells to convert MTS to a coloured compound is measured after 72 hours of incubation of a compound of formula (I) according to the invention. The concentrations of compound according to the invention which result in a 50% loss of cell proliferation and cell viability (IC50) are between 1 nM and 10 μM, depending on the tumor line and the compound tested. For example, compound No. 1 has an IC50 of 40 nM on the K-562 line, an IC50 of 50 nM on the KG-1a line and an IC50 of 40 nM on the Kasumi-1 line.

Assay [2] relates to Kasumi-1 line. As to the kind of experiment: MTS cell proliferation and viability test, Kasumi-1 line. To be noted: Homo sapiens, Kasumi-1 leukaemia line, 72 hours of incubation, read-out: IC50 (50% loss of cell proliferation and cell viability). The method, then: […]
(§1) The cell proliferation and viability were determined in a test using 3-(4,5-dimethylthiazol-2-yl)-5-(3-carboxymethoxyphenyl)-2-(4-sulphophenyl)-2H-tetrazolium (MTS) according to Fujishita T. et al., Oncology, 2003, 64 (4), 399-406. In this test, the mitochondrial ability of the live cells to convert MTS to a coloured compound is measured after 72 hours of incubation of a compound of formula (I) according to the invention. […]

Assay [3] relates to KG-1a line. As to the kind of experiment: MTS cell proliferation and viability test, KG-1a line. Conditions: Homo sapiens, KG-1a leukaemia line, 72 hours of incubation, read-out: IC50 (50% loss of cell proliferation and cell viability). The protocol:
[…]
as §1

Assay [4] has as its system SF268. The assay can be described thus: MTS cell proliferation and viability test, SF268 line. Conditions: Homo sapiens, SF-268, SF268 glioblastoma line, 72 hours of incubation, read-out: IC50 (50% loss of cell proliferation and cell viability). The protocol: […]
as §1

As for `CCNC(=O)Nc1nc2nc(Nc3ccc4nsnc4c3)ncc2cc1-c1c(Cl)cccc1Cl` [Compound No. 13, N-[2-(2,1,3-benzothiadiazol-5-ylamino)-6-(2,6-dichlorophenyl)pyrido[2,3-d]pyrimidin-7-yl]-N′-ethylurea], in assay [1], the IC50 came out at 74 nM.

Consider `CC(C)(C)NC(=O)Nc1nc2nc(Nc3ccc4nsnc4c3)ncc2cc1-c1c(Cl)cccc1Cl` [Compound No. 1, N-[2-(2,1,3-benzothiadiazol-5-ylamino)-6-(2,6-dichlorophenyl)pyrido[2,3-d]pyrimidin-7-yl]-N′-(1,1-dimethylethyl)urea], for which the IC50 was determined as 40 nM in assay [2], 40 nM in assay [1] and 50 nM in assay [3].

Regarding `CC(C)(C)NC(=O)Nc1nc2nc(Nc3ccc4ncnn4c3)ncc2cc1-c1c(Cl)cccc1Cl` [Compound No. 9, N-[6-(2,6-dichlorophenyl)-2-([1,2,4]triazolo[1,5-a]pyridin-6-ylamino)pyrido[2,3-d]pyrimidin-7-yl]-N′-(1,1-dimethylethyl)urea], the IC50 in assay [1] came out at 19 nM.

`CCN(CC)Cc1cc2cc(Nc3ncc4cc(-c5c(Cl)cccc5Cl)c(NC(=O)NC(C)(C)C)nc4n3)ccc2o1` [Compound No. 5, N-[6-(2,6-dichlorophenyl)-2-[[2-[(diethylamino)methyl]-5-benzofuranyl]amino]pyrido[2,3-d]pyrimidin-7-yl]-N′-(1,1-dimethylethyl)urea]: the IC50 in assay [1] was 5 nM.

Regarding `CC(C)(C)NC(=O)Nc1nc2nc(Nc3ccc4oc(CN)nc4c3)ncc2cc1-c1c(Cl)cccc1Cl` [Compound No. 7, N-[2-[[2-(aminomethyl)-5-benzoxazolyl]amino]-6-(2,6-dichlorophenyl)pyrido[2,3-d]pyrimidin-7-yl]-N′-(1,1-dimethylethyl)urea], the IC50 in assay [4] amounted to 43 nM.

Values taken from US7504406B2, “Derivatives of pyrido[2,3-d]pyrimidine, the preparation thereof, and the therapeutic application of the same” (Sanofi-Aventis, priority 2005, dated 2009).
